The values below come from patent US5447900A, “Thermosensitive recording material” (priority 1993, dated 1995).

The nature of the data set: Acid dissociation constant (pKa) by titration with sodium hydroxide, pH meter, in water/methanol 1:1. Format: physicochemical. Here is the method:
In Table 1, the acid dissociation constant of a compound was measured by the following method:
A commercially available pH meter "HORIBA N-8F" (Trademark), made by Horiba Ltd., equipped with three composite electrodes, was calibrated by using the following two solutions:
Water/methanol solution (with a volume ratio of 1:1) containing 0.05 mol/l potassium hydrogenphthalate.
Water/methanol solution (with a volume ratio of 1:1) containing 0.01 mol/l tris(hydroxy)aminomethane and 0.01 mol/l tris(hydroxy)aminomethane hydrochloride.
Then, a solution A was prepared in such a manner that 0.4969 g of 4-(4'-phenoxybutoxy)phthalic acid (Compound No. 1 in Table 1) and 0.5844 g of sodium chloride,were dissolved in a mixed solvent consisting of 50 ml of water and 50 ml of methanol.
In addition, a 0.1068 mol/l sodium hydroxide aqueous solution was prepared by standardizing the solution with potassium hydrogen-phthalate. This solution was hereinafter referred to as a solution B.
The solution A was placed in a beaker and stirred with a stirrer. The solution B was added dropwise in an amount of 0.5 to 1.0 ml to the solution A, with stirring, through a buret. When the pH of the solution A reached a constant value, the pH was measured. The pH was further measured with further addition of the solution B to the solution A, so that a titration curve was obtained. This titration curve was fitted in a theoretical formula by using a computer program, so that an acid dissociation constant of the compound No. 1 was calculated.

Setting [1] is: comparative color developer, solvent not given.
The mark [2] stands for this setting: mixed solvent of water and methanol, volume ratio 1:1.

On to `CC(C)Oc1ccc(S(=O)(=O)c2ccc(O)cc2)cc1` [4-isopropoxy-4'-hydroxydiphenylsulfone], for which the “acid dissociation constant pKa” value under setting [1] is 8.27.

As to `O=C(O)c1ccc(OCCCCOc2ccccc2)cc1C(=O)O` [Compound No. 1, 4-(4'-phenoxybutoxy)phthalic acid], under setting [2], the “Acid Dissociation Constant pKa1” value amounted to 3.55 and the “acid dissociation constant pKa2” value is 6.59.

`CC(C)(c1ccc(O)cc1)c1ccc(O)cc1` [4,4'-isopropylidene diphenol]: under setting [1], the “acid dissociation constant pKa1 (printed pKal)” value is about 10.7 and the “acid dissociation constant pKa2” value came out at 10.7.
